Measurements taken from patent publication US20230176066A1, “PLASMON-ENHANCED FLUORO-DOT ASSAYS” (Washington University, priority 2021, published 2023).

Legend:
JAWS II dendritic cells [1] = assay: Multiplexed Fluoro-dot assay: TNFα and IL-6 secretion after LPS stimulation; type: cell-based, Mouse; details: 200 ng/ml LPS
Method: Mouse TNFα DuoSet ELISA kits (R&D systems, catalog number DY410, lot number P189768) and mouse IL-6 DuoSet ELISA kit (R&D systems, catalog number DY406, lot number P234212) were used to perform the assays. Glass-bottom 96-well black plate (P96-1.5H-N, Cellvis, Mountain View, USA) was first coated with both TNFα capture antibody (0.8 μg/ml in PBS) and IL-6 capture antibody (2 μg/ml in PBS), 100 μ/well, and incubated overnight at 4° C. The plate was washed three times with 1×PBS and then blocked with 200 μl of reagent diluent (1×PBS in 1% BSA, 0.2 μm filtered). After blocking the plates were washed three times with PBS. JAWS II dendritic cells (ATCC® CRL-11904™) were cultured in alpha minimum essential medium with ribonucleosides, deoxyribonucleosides, 4 mM L-glutamine, 1 mM sodium pyruvate and 5 ng/ml murine GM-CSF, 10% heat-inactivated fetal bovine serum, 50 IU/ml of penicillin, 50 μg/ml of streptomycin. JAWS II DCs were seeded on the capture coated plates, at the seeding density of 5,000 cells/well in 100 μl of medium followed by incubation at 37° C. in 5% CO2 for 30 minutes. All the non-adherent cells were removed by taking out the medium and replacing it with 100 μl of fresh medium containing 200 ng/ml of LPS. The cells were incubated at 37° C. in 5% CO2 for 30 minutes, 1 hour, 2 hours, and 3 hours. The wells with medium and without LPS were incubated for 3 hours. […]

JAWS II dendritic cells [2] = assay: ELISA of culture supernatant of JAWS II DC after LPS stimulation; type: cell-based, Mouse; details: low dose and short duration of stimulation
Method: (§1) After completion of the incubation duration, the medium was decanted, and the cells were fixed using 100 μl/well of 4% neutral buffered formalin (NBF) for 20 minutes at room temperature. The plates were then washed three times with PBS and incubated with biotinylated detection antibodies, 75 ng/ml in reagent diluent for 2 hours at room temperature. The plates were washed three times using PBS and then were incubated with 100 μl/well of streptavidin Cy5-plasmonic-fluors (extinction 0.5) for 30 minutes at room temperature in dark. For comparison, 100 μl of 1 μg/ml of streptavidin-Cy5 (Thermo Fisher Scientific, catalog number SA1011) as conventional fluorophore and 1 nM of streptavidin QD655™ (Thermo Fisher Scientific, catalog number Q10123MP) was added to each well for 30 minutes at room temperature in dark. The plates were washed with PBS three times, and the nuclei of the cells were stained with 300 nM DAPI solution (Millipore Sigma, St. Louis, Mo., USA) for 5 minutes at room temperature in dark. Finally, the plates were washed three times in PBS and imaged using Nikon TsR2 epifluorescence microscope. For ELISA, culture supernatants of JAWS II DC after treatment described above were collected and TNFα concentration was measured using mouse TNFα DuoSet ELISA kits (R&D systems, catalog number DY410, lot number P189768) as per manufacturer's instructions.

JAWS II dendritic cells [3] = assay: Fluoro-dot assay on JAWS II DC: TNFα secretion after LPS stimulation; type: cell-based, Mouse; details: for TNFα secretion: 90 minutes incubation
Method: Mouse TNFα DuoSet ELISA kits (R&D systems, catalog number DY410, lot number P189768) was used to perform the assays. Glass-bottom 96-well black plate (P96-1.5H-N, Cellvis, Mountain View, USA) was first coated with capture antibodies (0.8 μg/ml in PBS), 100 μl/well and incubated overnight at 4° C. The plate was washed three times with 1×PBS and then blocked with 200 μl of reagent diluent (1×PBS in 1% BSA, 0.2 μm filtered). After blocking, the plates were washed three times with PBS. Mouse JAWS II dendritic cells (immature, monocytes ATCC® CRL11904™) were cultured in alpha minimum essential medium with ribonucleosides, deoxyribonucleosides, 4 mM L-glutamine, 1 mM sodium pyruvate and 5 ng/ml murine GM-CSF, 10% heat-inactivated fetal bovine serum, 50 IU/ml of penicillin, 50 μg/ml of streptomycin. JAWS II DCs were seeded on the capture coated plates, at the seeding density of 5,000 cells/well in 100 μl of medium followed by incubation at 37° C. in 5% CO2 for 30 minutes. All the non-adherent cells were removed by taking out the medium and replacing it with 100 μl of fresh medium containing varying amounts of LPS ranging from (0 to 2000 ng/ml). The cells were incubated at 37° C. in 5% CO2 for varying durations from 20 minutes to 90 minutes.
as §1

[4] = Fluorescence intensity vs. molar concentration of labels; type: physicochemical; details: linear regression
Method: Streptavidin-conjugated Cy3-plasmonic-fluor (PF550™ ultrabright fluor) and streptavidin-conjugated Cy5-plasmonic-fluor (PF650™ ultrabright fluor) were purchased from Auragent Biosceince LLC (St. Louis, USA). The extinction was measured using a Shimadzu UV-1800 spectrophotometer. SEM images were obtained using a FEI Nova 2300 field-emission scanning electron microscope at an acceleration voltage of 10 kV. TEM images were obtained using a JEOL JEM-2100F field emission instrument. A drop of aqueous solution was dried on a carbon-coated grid, which had been made hydrophilic by glow discharge. Molar concentrations of plasmonic-fluors was calculated as described previously. Fluorescence intensity was recorded using Azure Biomolecular Imager: Sapphire RGBNIR (Azure Biosystems, Inc. Dublin, USA) and the images were analyzed using Licor Image Studio Lite.
For analyzing the statistical difference between more than two groups, one-way analysis of variance (ANOVA) with a post-hoc Tukey's honest significance test was used. Statistical significance of the data was calculated at 95% (p<0.05) confidence intervals. All values are expressed as mean±standard deviation. GraphPad Prism 6 was used for all statistical analysis. Linear regression was used to calculate the equation and to derive the slope of fluorescence intensity vs. molar concentration graph. […]

lipopolysaccharide [LPS]
secretion of TNFα and IL-6 with increasing duration of LPS incubation (JAWS II dendritic cells [1]; 30 minutes to 3 hours): increase in the overall secretion of both cytokines
relative secretion of IL-6 and TNFα at longer time durations (JAWS II dendritic cells [1]; 2 hours and 3 hours): more predominant IL-6 secretion as compared to TNFα
amount of TNFα secretion by ELISA (JAWS II dendritic cells [2]): below its detection limit
TNFα secretion (JAWS II dendritic cells [3]; 2 ng/ml LPS): no significant secretion of TNFα
TNFα secretion (JAWS II dendritic cells [3]; 20 ng/ml LPS): Substantial secretion
duration of treatment at which difference between treated and untreated cells was statistically significant (JAWS II dendritic cells [3]; 200 ng/ml LPS): more than 40 minutes
incubation time after which TNFα secretion was detectable (JAWS II dendritic cells [3]; 200 ng/ml LPS): 40 min
TNFα secretion with increasing LPS concentration (JAWS II dendritic cells [3]; 20, 200, 2000 ng/ml LPS, 90 minutes): increase in TNFα secretion
LPS dose at which difference between treated and untreated cells was statistically significant (JAWS II dendritic cells [3]; 90 min incubation, number of clusters and particles/cluster): higher than 20 ng/ml

Cy5-plasmonic-fluor: Streptavidin-conjugated Cy5 plasmon-enhanced fluorescent nanolabel purchased from Auragent Bioscience
slope of fluorescence intensity vs. molar concentration, steeper than that of the conventional fluorophore (Cy5 or Cy3) [4]: ~16,000 fold
